Patent US20230023092A1, “TREATMENT OF DEPRESSION AND OTHER VARIOUS DISORDERS WITH PSILOCYBIN” (COMPASS […], priority 2019, published 2023)

Tested on: healthy subjects
Test: Phase 1 study: adverse events (TEAEs, MedDRA coded)
Format: in vivo, human
Procedure: A Phase 1 randomized, double-blind, placebo-controlled study to evaluate the effect of psilocybin on cognitive and emotional processing as compared to placebo in healthy volunteers was conducted. The study investigated the short-term (Day 7) and long-term (Day 28) effects of moderate (10 mg) and high doses (25 mg) of psilocybin on key domains of cognition, such as episodic memory, attention, working and spatial memory, social cognition and elements of executive function, including cognitive flexibility.
Each subject was assigned 1 treatment bottle containing 5 capsules packaged in a double-blind fashion, depending on the randomized treatment arm, the bottle contained one of the following: • a. Psilocybin 10 mg: 2×5-mg oral psilocybin capsules plus 3×placebo capsules • b. Psilocybin 25 mg: 5×5-mg oral psilocybin capsules • c. Placebo: 5×placebo capsules
Each 5-mg oral psilocybin capsules comprised 5 mg crystalline psilocybin in the form or Polymorph A, 12.5 mg of SMCC 50, 79.5 mg of SMCC 90, 1 mg sodium starch glycolate, 1 mg colloidal silicon dioxide, and 1 mg sodium stearyl fumarate
Adverse events: Throughout the course of the study, all AEs were monitored and recorded. Each AE was classified according to the following criteria: • i. […] Moderate: The AE produces some impairment of functioning, but is not hazardous to the subject's health. • iii. Severe: The AE produces significant impairment of functioning or incapacitation and is a definite hazard to the subject's health.
Visit 3 (V3): Drug Administration (Day 0): The subject was asked to eat a light breakfast at least two hours prior to coming to the clinic for study drug administration. On Day 0 (V3), the subject underwent the SSTS, had vital signs obtained, medications reviewed, AEs recorded and eligibility reviewed prior to being randomized to study drug. The study drug was administered to up to six subjects simultaneously in individual beds separated by a curtain. The subject was invited to put on eyeshades and headphones, lie down and listen to calming music for the rest of the session (six hours). The subject was supported 1:1 with a chaperone and supervised by the study psychiatrist and lead therapist.
During administration of psilocybin, each subject received one-on-one support from a trained assisting therapist and each dosing session was supervised by a study psychiatrist and a lead therapist. The study drug was administered simultaneously to up to six participants as a single 5-capsule oral dose (10 mg psilocybin: 2×5-mg psilocybin capsules plus 3×placebo capsules; 25 mg psilocybin: 5×5-mg psilocybin capsules; placebo: 5×placebo capsules). Twenty-five dosing sessions were completed, with up to six participants dosed simultaneously per session. Each session lasted approximately 6 to 8 hours with subjects encouraged to relax and engage in introspection for the duration. After the acute effects of the study drug had subsided, subjects were discharged.

`CN(C)CCc1c[nH]c2cccc(OP(=O)(O)O)c12` [Psilocybin, psilocybin] was tested, and the “Serious adverse events or adverse events that led to withdrawal” value (10 mg and 25 mg oral, 12-week study) was “no serious adverse events or adverse events that led to withdrawal”, the “AEs deemed potentially related to study treatment, % of AEs of the arm” value (10 mg oral) was 92.6% and the “Affect lability, Events” value (10 mg oral) was 5. The “Affect lability, N (%)” value (10 mg oral) was 5 (16.7), the “Affect lability, worst severity Mild, Events” value (10 mg oral) was 3 and the “Affect lability, worst severity Mild, N (%)” value (10 mg oral) was 3 (10.0). For the same compound, the “Affect lability, worst severity Moderate, Events” value (10 mg oral) was 2, the “Affect lability, worst severity Moderate, N (%)” value (10 mg oral) was 2 (6.7) and the “Affect lability, worst severity Severe, Events” value (10 mg oral) was 0. For the same compound, the “Affect lability, worst severity Severe, N (%)” value (10 mg oral) was 0, the “Any Selected TEAE, Events” value (10 mg oral) was 106 and the “Any Selected TEAE, N (%)” value (10 mg oral) was 27 (90.0). For the same compound, the “Any TEAE leading to death, Events” value (10 mg oral) was 0, the “Any TEAE leading to death, N (%)” value (10 mg oral) was 0 and the “Any TEAE leading to study discontinuation, Events” value (10 mg oral) was 0. The “Any TEAE leading to study discontinuation, N (%)” value (10 mg oral) was 0, the “Any TEAE related to study treatment, Events” value (10 mg oral) was 188 and the “Any TEAE related to study treatment, N (%)” value (10 mg oral) was 29 (96.7). The “Any TEAE, Events” value (10 mg oral) was 203, the “Any TEAE, N (%)” value (10 mg oral) was 29 (96.7) and the “Any TEAE, worst severity Mild, Events” value (10 mg oral) was 12. The “Any TEAE, worst severity Mild, N (%)” value (10 mg oral) was 6 (20.0), the “Any TEAE, worst severity Moderate, Events” value (10 mg oral) was 38 and the “Any TEAE, worst severity Moderate, N (%)” value (10 mg oral) was 13 (43.3). For the same compound, the “Any TEAE, worst severity Severe, Events” value (10 mg oral) was 22, the “Any TEAE, worst severity Severe, N (%)” value (10 mg oral) was 10 (33.3) and the “Any serious TEAE related to study treatment, Events” value (10 mg oral) was 0. The “Any serious TEAE related to study treatment, N (%)” value (10 mg oral) was 0, the “Any serious TEAE, Events” value (10 mg oral) was 0 and the “Any serious TEAE, N (%)” value (10 mg oral) was 0. For the same compound, the “Any severe TEAE, Events” value (10 mg oral) was 22, the “Any severe TEAE, N (%)” value (10 mg oral) was 10 (33.3) and the “Change in sustained attention, Events” value (10 mg oral) was 2. The “Change in sustained attention, N (%)” value (10 mg oral) was 2 (6.7), the “Depressed mood, Events” value (10 mg oral) was 1 and the “Depressed mood, N (%)” value (10 mg oral) was 1 (3.3). The “Dissociative identity disorder, Events” value (10 mg oral) was 2, the “Dissociative identity disorder, N (%)” value (10 mg oral) was 1 (3.3) and the “Emotional disorder, Events” value (10 mg oral) was 2. The “Emotional disorder, N (%)” value (10 mg oral) was 2 (6.7), the “Emotional disorder, worst severity Mild, Events” value (10 mg oral) was 1 and the “Emotional disorder, worst severity Mild, N (%)” value (10 mg oral) was 1 (3.3). For the same compound, the “Emotional disorder, worst severity Moderate, Events” value (10 mg oral) was 1, the “Emotional disorder, worst severity Moderate, N (%)” value (10 mg oral) was 1 (3.3) and the “Emotional disorder, worst severity Severe, Events” value (10 mg oral) was 0. For the same compound, the “Emotional disorder, worst severity Severe, N (%)” value (10 mg oral) was 0, the “Euphoric mood, Events” value (10 mg oral) was 7 and the “Euphoric mood, N (%)” value (10 mg oral) was 7 (23.3). The “Euphoric mood, worst severity Mild, Events” value (10 mg oral) was 0, the “Euphoric mood, worst severity Mild, N (%)” value (10 mg oral) was 0 and the “Euphoric mood, worst severity Moderate, Events” value (10 mg oral) was 6. The “Euphoric mood, worst severity Moderate, N (%)” value (10 mg oral) was 6 (20.0), the “Euphoric mood, worst severity Severe, Events” value (10 mg oral) was 1 and the “Euphoric mood, worst severity Severe, N (%)” value (10 mg oral) was 1 (3.3). The “Fatigue, Events” value (10 mg oral) was 10, the “Fatigue, N (%)” value (10 mg oral) was 9 (30.0) and the “Fatigue, worst severity Mild, Events” value (10 mg oral) was 6. The “Fatigue, worst severity Mild, N (%)” value (10 mg oral) was 6 (20.0), the “Fatigue, worst severity Moderate, Events” value (10 mg oral) was 3 and the “Fatigue, worst severity Moderate, N (%)” value (10 mg oral) was 2 (6.7). The “Fatigue, worst severity Severe, Events” value (10 mg oral) was 1, the “Fatigue, worst severity Severe, N (%)” value (10 mg oral) was 1 (3.3) and the “Feeling abnormal, Events” value (10 mg oral) was 4. The “Feeling abnormal, N (%)” value (10 mg oral) was 4 (13.3), the “Feeling abnormal, worst severity Mild, Events” value (10 mg oral) was 3 and the “Feeling abnormal, worst severity Mild, N (%)” value (10 mg oral) was 3 (10.0). For the same compound, the “Feeling abnormal, worst severity Moderate, Events” value (10 mg oral) was 1, the “Feeling abnormal, worst severity Moderate, N (%)” value (10 mg oral) was 1 (3.3) and the “Feeling abnormal, worst severity Severe, Events” value (10 mg oral) was 0. The “Feeling abnormal, worst severity Severe, N (%)” value (10 mg oral) was 0, the “Feeling of relaxation, Events” value (10 mg oral) was 5 and the “Feeling of relaxation, N (%)” value (10 mg oral) was 3 (10.0). The “Gastrointestinal disorders, Events” value (10 mg oral) was 4, the “Gastrointestinal disorders, N (%)” value (10 mg oral) was 4 (13.3) and the “Gastrointestinal disorders, worst severity Mild, Events” value (10 mg oral) was 3. The “Gastrointestinal disorders, worst severity Mild, N (%)” value (10 mg oral) was 3 (10.0), the “Gastrointestinal disorders, worst severity Moderate, Events” value (10 mg oral) was 1 and the “Gastrointestinal disorders, worst severity Moderate, N (%)” value (10 mg oral) was 1 (3.3). The “Gastrointestinal disorders, worst severity Severe, Events” value (10 mg oral) was 0, the “Gastrointestinal disorders, worst severity Severe, N (%)” value (10 mg oral) was 0 and the “General disorders and administration site conditions, Events” value (10 mg oral) was 27. For the same compound, the “General disorders and administration site conditions, N (%)” value (10 mg oral) was 17 (56.7), the “General disorders and administration site conditions, worst severity Mild, Events” value (10 mg oral) was 17 and the “General disorders and administration site conditions, worst severity Mild, N (%)” value (10 mg oral) was 13 (43.3). For the same compound, the “General disorders and administration site conditions, worst severity Moderate, Events” value (10 mg oral) was 6, the “General disorders and administration site conditions, worst severity Moderate, N (%)” value (10 mg oral) was 3 (10.0) and the “General disorders and administration site conditions, worst severity Severe, Events” value (10 mg oral) was 1. For the same compound, the “General disorders and administration site conditions, worst severity Severe, N (%)” value (10 mg oral) was 1 (3.3), the “Hallucination, Events” value (10 mg oral) was 3 and the “Hallucination, N (%)” value (10 mg oral) was 3 (10.0). For the same compound, the “Hallucination, auditory, Events” value (10 mg oral) was 4, the “Hallucination, auditory, N (%)” value (10 mg oral) was 4 (13.3) and the “Hallucination, auditory, worst severity Mild, Events” value (10 mg oral) was 1. For the same compound, the “Hallucination, auditory, worst severity Mild, N (%)” value (10 mg oral) was 1 (3.3), the “Hallucination, auditory, worst severity Moderate, Events” value (10 mg oral) was 1 and the “Hallucination, auditory, worst severity Moderate, N (%)” value (10 mg oral) was 1 (3.3). For the same compound, the “Hallucination, auditory, worst severity Severe, Events” value (10 mg oral) was 2, the “Hallucination, auditory, worst severity Severe, N (%)” value (10 mg oral) was 2 (6.7) and the “Hallucination, gustatory, Events” value (10 mg oral) was 1. The “Hallucination, gustatory, N (%)” value (10 mg oral) was 1 (3.3), the “Hallucination, olfactory, Events” value (10 mg oral) was 1 and the “Hallucination, olfactory, N (%)” value (10 mg oral) was 1 (3.3). The “Hallucination, tactile, Events” value (10 mg oral) was 2, the “Hallucination, tactile, N (%)” value (10 mg oral) was 2 (6.7) and the “Hallucination, visual, Events” value (10 mg oral) was 20. For the same compound, the “Hallucination, visual, N (%)” value (10 mg oral) was 18 (60.0), the “Hallucination, visual, worst severity Mild, Events” value (10 mg oral) was 3 and the “Hallucination, visual, worst severity Mild, N (%)” value (10 mg oral) was 3 (10.0). The “Hallucination, visual, worst severity Moderate, Events” value (10 mg oral) was 8, the “Hallucination, visual, worst severity Moderate, N (%)” value (10 mg oral) was 8 (26.7) and the “Hallucination, visual, worst severity Severe, Events” value (10 mg oral) was 7. The “Hallucination, visual, worst severity Severe, N (%)” value (10 mg oral) was 7 (23.3), the “Hallucination, worst severity Mild, Events” value (10 mg oral) was 0 and the “Hallucination, worst severity Mild, N (%)” value (10 mg oral) was 0. The “Hallucination, worst severity Moderate, Events” value (10 mg oral) was 3, the “Hallucination, worst severity Moderate, N (%)” value (10 mg oral) was 3 (10.0) and the “Hallucination, worst severity Severe, Events” value (10 mg oral) was 0. The “Hallucination, worst severity Severe, N (%)” value (10 mg oral) was 0, the “Headache, Events” value (10 mg oral) was 12 and the “Headache, N (%)” value (10 mg oral) was 9 (30.0). For the same compound, the “Headache, worst severity Mild, Events” value (10 mg oral) was 12, the “Headache, worst severity Mild, N (%)” value (10 mg oral) was 9 (30.0) and the “Headache, worst severity Moderate, Events” value (10 mg oral) was 0. The “Headache, worst severity Moderate, N (%)” value (10 mg oral) was 0, the “Headache, worst severity Severe, Events” value (10 mg oral) was 0 and the “Headache, worst severity Severe, N (%)” value (10 mg oral) was 0. For the same compound, the “Hypoaesthesia, Events” value (10 mg oral) was 2, the “Hypoaesthesia, N (%)” value (10 mg oral) was 2 (6.7) and the “Hypoaesthesia, worst severity Mild, Events” value (10 mg oral) was 2. The “Hypoaesthesia, worst severity Mild, N (%)” value (10 mg oral) was 2 (6.7) and the “Hypoaesthesia, worst severity Moderate, Events” value (10 mg oral) was 0.
